Test results reported in article PMC10878751, “N-Substituted Phenylhydrazones Kill the Ring Stage of Plasmodium falciparum” (BioMed Research International, 2024).
Where two headings read alike, the source gives them in different places.

Assays:
[1] = tested on: 3D7 chloroquine-sensitive strain of Plasmodium falciparum; experiment: SYBR green antimalarial assay, 3D7 strain
Procedure: (§1) The SYBR green and cytotoxicity assay procedure to determine the potency of the phenylhydrazones was according to [16].
(§2) One-milligram (1 mg) powder of each compounds was weighed and transferred into dimethylsulphoxide (DMSO) (1 ml of 0.5% v/v) to yield a stock concentration of 1000 μg/ml. The stock solution was vortexed well to dissolve the compounds and later filtered through 0.2 μm pore filter unit and then stored in a -20°C freezer until use. The stock products were diluted 10-fold to obtain a working solution of 100 μg/ml. This working solution was further serially diluted […] to obtain the concentrations 100 μg/ml, 50 μg/ml, 25 μg/ml, 12.5 μg/ml, 6.25 μg/ml, 3.13 μg/ml, 1.56 μg/ml, 0.78 μg/ml, and 0.39 μg/ml.
(§3) Continuous P. falciparum asexual cultures were maintained in vitro in an atmosphere of 93% N2, 4% CO2, and 3% O2 at 37°C in complete medium (CM) (10.44 g/liter Roswell Park Memorial Institute Medium (RPMI) 1640, 5.94 g/liter N-2-hydroxyethylpiperazine-N-2-ethane sulfonic acid (HEPES), 5 g/liter AlbuMAX II, 50 mg/liter hypoxanthine, and 2.1 g/liter sodium bicarbonate). Parasites were cultured in O+ RBCs and maintained in the incubator with daily media change until a parasitemia of more than 5% ring stages was obtained. The culture was then treated with 5% sorbitol to obtain synchronized ring stage, and parasite growth was monitored for some few days by estimating percentage (%) parasitemia using Giemsa-stained slides and light microscope with 100x magnification until parasitemia of more than 5% was recorded. Parasite suspension of 2% hematocrit with 1% parasitemia was prepared using uninfected blood to make a total of 14 ml in a complete culture medium for the plating. Compound plating and SYBR green assay were according to [16].
(§4) One hundred (100) microliters of each nine dilutions (100 μg/ml, 50 μg/ml, 25 μg/ml, 12.5 μg/ml, 6.25 μg/ml, 3.13 μg/ml, 1.56 μg/ml, 0.78 μg/ml, and 0.39 μg/ml) was plated in duplicate in a 96-well coastal plate. 15 ng/ml of artesunate was serially diluted and plated alongside with the compounds as a standard antimalarial control drug. One hundred of parasite mix with 2% hematocrit and 1% parasitemia were added to each treated well starting from the 2nd well to the 10th well. One hundred microliters of parasite mix without any drug was added to the 11th well as a negative control, and the procedure was repeated for the rest of other extract/compounds. The plates were arranged in a modular chamber and gassed for 5 min with gas mixture of 5% oxygen, 5% carbon dioxide, and 90% nitrogen and then kept at 37°C for 72 h.
(§5) The plates were harvested after 72 h, and the assays were paused by adding 100 μl lysing buffer containing SYBR green to each well and was thoroughly and gently mixed to avoid production of bubbles. The plates were then incubated in the dark for 30-60 minutes before reading the assay using FLUOstar OPTIMA Fluorometer plate reader with control software version 2.20 at 470 nm and 520 nm wavelengths.
(§6) Each compound was tested in triplicate concentration that inhibits asexual Plasmodium falciparum parasite by 50% (IC50) estimated from dose-response curves by nonlinear regression analysis using GraphPad Prism version 7.0 software (GraphPad software, San Diego, CA, USA). Cytotoxicity analysis was carried out using Microsoft Excel Version 2010.

[2] = tested on: DD2 chloroquine-resistance strain; experiment: SYBR green antimalarial assay, DD2 strain
Procedure: as §1, §2, §3, §4, §5, §6

[3] = tested on: uninfected red blood cells; experiment: MTT cytotoxicity assay; settings: uninfected red blood cells, 72 h, MTT
Procedure: as §1
(§7) Following that, 100 μl of uninfected red blood cells was put to each well. Compound, culture medium, and uninfected red blood cells were subtracted from the optical densities by running control experiments for each parameter independently alongside the main experiment. The plates were then incubated for 72 hours at 37°C in a humidified incubator with 5% O2 and CO2 before 20 μl of 2.5 mg/ml MTT (in phosphate-buffered saline) solution was added to each well, and the plate was incubated for another 2 hours. After incubation, aliquots of culture medium (150 μl) were taken and discarded from each well, and 200 μl of Triton X-100 in acidified isopropanol was added to each well to dissolve any formazan produced. The plates were then maintained at room temperature in the dark for 24 hours before the optical densities of the wells were measured using a plate reader at 570 nm. […] The CC50 values were compared to the standard values.

MTT cytotoxicity assay = experiment: MTT cytotoxicity assay
Procedure: as §1, §7

[4] = Plasmodium falciparum, 3D7, 72 h, read-out: 3D7 IC50
[5] = Plasmodium falciparum, DD2, 72 h, read-out: DD2 IC50
[6] = Plasmodium falciparum, DD2, read-out: pIC50 Dd2 (converted)
[7] = Plasmodium falciparum, 3D7, read-out: pIC50 3D7 (converted)

Molecule | pIC50 3D7 ([1]; calculated from in vitro IC50s, 3D7 CS strain) | IC50 ([1]; read-out: 3D7 IC50, 3D7 chloroquine-sensitive strain, ring stage, 72 h, SYBR green) | pIC50 Dd2 ([2]; calculated from in vitro IC50s, DD2 CR strain) | IC50 ([2]; read-out: DD2 IC50, DD2 chloroquine-resistant strain, ring stage, 72 h, SYBR green) | CC50 [3] | SI = CC50/IC50 for 3D7 [1] | IC50 [1, 4] | SI = CC50/IC50 for DD2 [2] | IC50 [2, 5] | CC50 at 72 h (MTT cytotoxicity assay; uninfected red blood cells) | SI = CC50/IC50 for 3D7 ([1]; selectivity index) | IC50 [2, 6] | SI = CC50/IC50 for DD2 ([2]; selectivity index) | CC50 at 72 h (MTT cytotoxicity assay) | IC50 [1, 7]
1-Benzylidene-2-(2,4-dinitrophenyl)hydrazine [PHN5] | 4.25 | 19.02 ± 0.02 µM | 4.71 | 6.591 ± 0.06 µM | 112 µM |  |  |  |  |  |  |  |  |  | 
C[C@H]1[C@H](OC(=O)CCC(=O)O)O[C@@H]2O[C@@]3(C)CC[C@H]4[C@H](C)CC[C@@H]1[C@@]24OO3 [Artesunate, reference compound] |  |  |  |  |  | >1000 | 0.004688 ± 1.7e-05 µM | >1000 | 0.005063 ± 2.3e-05 µM | 84.7 µM |  |  |  |  | 
O=[N+]([O-])c1ccc(NN=C(c2ccccc2)c2ccccc2)c([N+](=O)[O-])c1 [PHN1, (2,4-Dinitrophenyl)-2-(diphenylmethylene) Hydrazine] |  |  |  |  |  |  | 31 ± 0.37 µM |  | 34.89 ± 0.17 µM |  | 3 | 89.1 µM | 3 | 106 µM | 
O=[N+]([O-])c1ccc(NN=Cc2ccc(O)cc2O)c([N+](=O)[O-])c1 [PHN2, 4-(2-(2,4-Dinitrophenylhydrazono) Methyl) Benzene-1,3-diol] |  |  |  |  |  |  | 14.12 ± 0.04 µM |  | 16.2 ± 0.17 µM |  | 8 | 40.7 µM | 7 | 119 µM | 269 µM
COc1cc(C=NNc2ccc([N+](=O)[O-])cc2[N+](=O)[O-])ccc1O [PHN3] |  |  |  |  |  |  | 6.6 ± 0.03 µM |  | 2.415 ± 0.01 µM |  | 20 | 6.61 µM | 55 | 132 µM | 18.2 µM
O=[N+]([O-])c1ccc(NN=Cc2cccc(O)c2)c([N+](=O)[O-])c1 [PHN6, 3-(2-2(4-Dinitrophenyl) Hydrazono) Methylphenol] |  |  |  |  |  |  | 1.29 ± 0.05 µM |  | 5.12 ± 0.07 µM |  | 79 | 17 µM | 19 | 101 µM | 4.27 µM
